The values that follow come from patent US9382258B2, “Agents for treating pain and uses thereof” (AbbVie Inc., priority 2012, dated 2016).

For this assay, the target named is T1, human Cav2.2 (Homo sapiens, UniProt Q00975).
T1 construct: cells endogenously expressing human Cav2.2; endogenous in cells; host or cells: IMR32 cells
T1 sequence (Q00975 whole entry): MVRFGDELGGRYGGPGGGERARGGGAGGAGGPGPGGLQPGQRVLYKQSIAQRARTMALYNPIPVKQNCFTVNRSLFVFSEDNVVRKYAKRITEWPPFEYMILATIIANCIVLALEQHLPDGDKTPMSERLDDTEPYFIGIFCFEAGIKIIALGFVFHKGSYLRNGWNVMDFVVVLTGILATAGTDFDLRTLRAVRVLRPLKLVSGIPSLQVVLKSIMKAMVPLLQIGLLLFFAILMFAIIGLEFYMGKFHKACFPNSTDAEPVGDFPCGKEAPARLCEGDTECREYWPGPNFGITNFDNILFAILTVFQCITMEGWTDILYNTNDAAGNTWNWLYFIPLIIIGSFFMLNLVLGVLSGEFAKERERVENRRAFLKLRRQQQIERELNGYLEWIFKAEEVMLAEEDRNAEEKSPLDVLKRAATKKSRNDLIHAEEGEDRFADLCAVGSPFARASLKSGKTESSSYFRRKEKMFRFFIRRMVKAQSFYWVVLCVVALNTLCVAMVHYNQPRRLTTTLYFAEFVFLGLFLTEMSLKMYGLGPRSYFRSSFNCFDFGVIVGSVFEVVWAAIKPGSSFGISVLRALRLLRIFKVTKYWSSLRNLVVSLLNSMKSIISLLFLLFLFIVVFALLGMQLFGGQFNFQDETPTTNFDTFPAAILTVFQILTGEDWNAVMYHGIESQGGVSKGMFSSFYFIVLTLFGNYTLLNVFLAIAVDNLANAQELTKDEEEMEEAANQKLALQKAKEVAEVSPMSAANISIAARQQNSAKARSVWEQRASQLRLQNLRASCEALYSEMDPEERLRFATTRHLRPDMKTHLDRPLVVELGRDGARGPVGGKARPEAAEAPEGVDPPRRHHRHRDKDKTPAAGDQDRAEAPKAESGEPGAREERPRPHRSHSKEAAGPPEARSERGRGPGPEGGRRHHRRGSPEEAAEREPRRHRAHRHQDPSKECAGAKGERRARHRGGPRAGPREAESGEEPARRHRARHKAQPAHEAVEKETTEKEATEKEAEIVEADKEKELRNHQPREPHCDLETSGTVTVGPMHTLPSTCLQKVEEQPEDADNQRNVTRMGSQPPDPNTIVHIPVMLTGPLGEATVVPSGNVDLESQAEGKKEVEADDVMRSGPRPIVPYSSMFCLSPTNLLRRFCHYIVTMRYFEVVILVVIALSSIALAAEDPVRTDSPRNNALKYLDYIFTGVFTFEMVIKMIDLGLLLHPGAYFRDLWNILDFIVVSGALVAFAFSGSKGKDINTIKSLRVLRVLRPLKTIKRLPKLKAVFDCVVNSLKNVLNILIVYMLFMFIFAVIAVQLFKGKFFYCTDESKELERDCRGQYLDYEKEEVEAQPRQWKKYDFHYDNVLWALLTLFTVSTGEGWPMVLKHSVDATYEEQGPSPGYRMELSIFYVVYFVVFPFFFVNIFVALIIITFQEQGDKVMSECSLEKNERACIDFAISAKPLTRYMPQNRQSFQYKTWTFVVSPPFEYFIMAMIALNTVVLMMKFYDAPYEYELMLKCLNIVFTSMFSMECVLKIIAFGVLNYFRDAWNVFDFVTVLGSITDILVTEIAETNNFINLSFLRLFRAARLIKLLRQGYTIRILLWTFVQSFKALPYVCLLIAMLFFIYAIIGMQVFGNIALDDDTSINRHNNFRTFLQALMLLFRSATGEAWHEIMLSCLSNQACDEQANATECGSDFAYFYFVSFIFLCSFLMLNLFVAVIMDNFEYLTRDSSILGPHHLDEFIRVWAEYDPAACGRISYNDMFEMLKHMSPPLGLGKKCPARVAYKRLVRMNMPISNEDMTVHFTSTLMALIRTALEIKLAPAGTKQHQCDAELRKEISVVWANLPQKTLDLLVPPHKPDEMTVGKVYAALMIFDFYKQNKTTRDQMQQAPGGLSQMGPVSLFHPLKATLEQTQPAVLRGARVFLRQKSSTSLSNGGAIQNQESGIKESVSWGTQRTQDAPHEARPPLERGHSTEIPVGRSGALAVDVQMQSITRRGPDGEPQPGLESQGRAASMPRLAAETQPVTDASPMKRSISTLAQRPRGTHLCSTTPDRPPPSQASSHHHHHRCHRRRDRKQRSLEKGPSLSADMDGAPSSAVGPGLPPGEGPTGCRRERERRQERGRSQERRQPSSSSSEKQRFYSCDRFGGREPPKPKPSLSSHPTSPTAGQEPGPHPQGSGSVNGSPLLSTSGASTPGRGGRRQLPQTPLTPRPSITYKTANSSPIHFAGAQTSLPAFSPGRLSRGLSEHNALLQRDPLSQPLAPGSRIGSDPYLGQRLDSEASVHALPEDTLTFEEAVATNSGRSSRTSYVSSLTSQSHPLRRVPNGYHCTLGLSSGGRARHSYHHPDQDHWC
T1 sequence (P54284 whole entry partner): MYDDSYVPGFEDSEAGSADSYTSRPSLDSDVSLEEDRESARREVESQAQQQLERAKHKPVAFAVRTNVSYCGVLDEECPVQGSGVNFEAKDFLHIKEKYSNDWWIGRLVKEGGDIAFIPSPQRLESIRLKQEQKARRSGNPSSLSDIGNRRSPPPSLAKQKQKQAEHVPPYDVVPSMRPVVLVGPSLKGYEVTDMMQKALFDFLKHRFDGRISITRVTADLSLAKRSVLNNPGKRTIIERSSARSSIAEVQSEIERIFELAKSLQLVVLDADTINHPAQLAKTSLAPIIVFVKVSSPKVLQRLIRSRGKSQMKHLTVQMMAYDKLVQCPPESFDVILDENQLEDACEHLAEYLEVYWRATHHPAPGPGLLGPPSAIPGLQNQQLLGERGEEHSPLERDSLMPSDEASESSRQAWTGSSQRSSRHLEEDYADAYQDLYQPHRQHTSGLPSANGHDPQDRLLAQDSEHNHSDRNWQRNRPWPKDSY
T1 sequence (P54289 25-956 partner limits assumed): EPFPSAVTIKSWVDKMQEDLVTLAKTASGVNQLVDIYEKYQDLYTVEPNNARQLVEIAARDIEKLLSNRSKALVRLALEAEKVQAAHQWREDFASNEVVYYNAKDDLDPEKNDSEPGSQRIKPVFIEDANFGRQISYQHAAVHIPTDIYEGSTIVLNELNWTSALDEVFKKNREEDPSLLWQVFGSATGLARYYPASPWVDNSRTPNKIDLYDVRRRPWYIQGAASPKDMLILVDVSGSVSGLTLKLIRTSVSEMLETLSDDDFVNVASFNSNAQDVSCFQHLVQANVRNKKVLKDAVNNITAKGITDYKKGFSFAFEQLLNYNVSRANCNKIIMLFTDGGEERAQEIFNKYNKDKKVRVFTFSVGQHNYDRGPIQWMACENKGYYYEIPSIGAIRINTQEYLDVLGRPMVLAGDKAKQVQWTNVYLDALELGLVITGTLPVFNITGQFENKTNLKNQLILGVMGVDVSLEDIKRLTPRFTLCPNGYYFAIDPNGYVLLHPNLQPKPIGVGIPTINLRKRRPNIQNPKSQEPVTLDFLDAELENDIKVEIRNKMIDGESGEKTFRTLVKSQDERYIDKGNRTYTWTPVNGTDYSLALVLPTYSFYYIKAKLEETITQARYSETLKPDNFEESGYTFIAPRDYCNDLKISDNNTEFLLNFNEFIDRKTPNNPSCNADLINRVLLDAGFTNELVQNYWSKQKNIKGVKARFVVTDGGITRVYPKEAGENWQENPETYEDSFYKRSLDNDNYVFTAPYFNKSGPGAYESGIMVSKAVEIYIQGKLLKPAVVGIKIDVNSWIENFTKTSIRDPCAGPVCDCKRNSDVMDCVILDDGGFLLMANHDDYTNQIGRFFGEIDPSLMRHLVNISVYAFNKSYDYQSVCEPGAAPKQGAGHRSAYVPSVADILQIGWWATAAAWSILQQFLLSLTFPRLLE
T1 sequence (P54289 957-1103 partner limits assumed): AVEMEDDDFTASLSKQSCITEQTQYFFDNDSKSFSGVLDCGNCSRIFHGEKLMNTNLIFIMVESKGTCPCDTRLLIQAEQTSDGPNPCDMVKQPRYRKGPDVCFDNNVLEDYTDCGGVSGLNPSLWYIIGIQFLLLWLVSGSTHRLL
The assay is described as follows: Calcium flux (FLIPR, Calcium 4 dye) in IMR32 cells endogenously expressing human Cav2.2. In kind it is cell-based. As to conditions: 60 minute pre-incubation, 2 μM nifedipine to block L-type channels, depolarized with 80 mM KCl, 5 mM CaCl2, average of n≥2 runs unless marked *. As to the method: Compounds were tested for effect on calcium flux in cells endogenously expressing human Cav2.2. Specifically, IMR32 cells endogenously expressing human Cav2.2 were assayed for Ca^2+ influx using a no-wash calcium indicator dye (Calcium 4 dye: Molecular Probes) and FLIPR technology (Lubin, M L; et al. Assay and Drug Development Technologies, 2006, 4(6), 689-694). The IMR32 cells were maintained in MEM media containing 10% (v/v) FBS, 1% (v/v) antibiotic/antimitotic, 1% (v/v) sodium pyruvate and 1% (v/v) MEM NEAA. Following dissociation in 0.05% (v/v) trypsin/EDTA, cells were seeded into black 1×96-well plates (Corning Cellbind) at a density of 1−1.2×10^5 cells/well and incubated in the maintenance media above for 48 hours at 37° C. Immediately prior to performing the assay the media was removed and cells were loaded for 1.5 hours with 1× Calcium 4 dye prepared in HBSS (137 mM NaCl, 5.4 mM KCl, 0.25 mM Na2HPO4, 0.44 mM KH2PO4, 1.3 mM CaCl2, 1 mM MgSO4, 4.2 mM NaHCO3) containing HEPES pH 7.4 at room temperature. After dye loading and a subsequent 60 minute pre-incubation with compounds (full log dilutions from 10 μM to 0.1 nM) in the presence of 1.3 mM CaCl2 and 2 μM nifedipine to block endogenous L-type channels, the external Ca^2+ concentration was increased to 5 mM CaCl2 and the cells concomitantly depolarized with 80 mM KCl to assay channel activity.
To determine the IC50 values, the percent inhibition of the compound at each concentration was determined relative to the activity in the absence of inhibitor, and data was fitted using non-linear regression sigmoidal dose response curve analysis with GraphPad Prism®. Unless otherwise indicated (*), the reported values are average values from at least two runs (i.e., n≧2).
On the technique in general: Calcium flux is commonly read through the fluorescence of an indicator in the cells.
In the case of `O=C1CCN(S(=O)(=O)c2ccc(C(F)(F)F)cc2)C[C@@H]2C[C@@H](Oc3cnc(C4CC4)cn3)CN12` [Example 29, (8R,9aS)-8-[(5-cyclopropylpyrazin-2-yl)oxy]-2-{[4-(trifluoromethyl)phenyl]sulfonyl}octahydro-5H-pyrrolo[1,2-a][1,4]diazepin-5-one], the IC50 worked out at 0.49 µM.
The value for `O=C1CCN(c2ccc(C(F)(F)F)cn2)C[C@@H]2C[C@H](Oc3cnc(C4CC4)cn3)CN12` [Example 30, (8S,9aS)-8-[(5-cyclopropylpyrazin-2-yl)oxy]-2-[5-(trifluoromethyl)pyridin-2-yl]octahydro-5H-pyrrolo[1,2-a][1,4]diazepin-5-one] was 6.34 µM.
For the compound `O=C1CCN(S(=O)(=O)c2cccc(C(F)(F)F)c2)C[C@@H]2C[C@@H](Oc3ccc(C(F)(F)F)cn3)CN12` [Example 31, (8R,9aS)-2-{[3-(trifluoromethyl)phenyl]sulfonyl}-8-{[5-(trifluoromethyl)pyridin-2-yl]oxy}octahydro-5H-pyrrolo[1,2-a][1,4]diazepin-5-one], the IC50 was found to be 0.6 µM.
The value for `O=C(c1ccc(C(F)(F)F)cc1)N1CCC(=O)N2C[C@H](Oc3cnc(C4CC4)cn3)C[C@H]2C1` [Example 33, (8R,9aS)-8-[(5-cyclopropylpyrazin-2-yl)oxy]-2-[4-(trifluoromethyl)benzoyl]octahydro-5H-pyrrolo[1,2-a][1,4]diazepin-5-one] was 3.73 µM; that for `O=C(c1cccc(C(F)(F)F)c1F)N1CCC(=O)N2C[C@H](Oc3cnc(C4CC4)cn3)C[C@H]2C1` [Example 34, (8R,9aS)-8-[(5-cyclopropylpyrazin-2-yl)oxy]-2-[2-fluoro-3-(trifluoromethyl)benzoyl]octahydro-5H-pyrrolo[1,2-a][1,4]diazepin-5-one] was 1.01 µM.
The value for `O=C(c1ccc(C(F)(F)F)c(F)c1)N1CCC(=O)N2C[C@H](Oc3cnc(C4CC4)cn3)C[C@H]2C1` [Example 35, (8R,9aS)-8-[(5-cyclopropylpyrazin-2-yl)oxy]-2-[3-fluoro-4-(trifluoromethyl)benzoyl]octahydro-5H-pyrrolo[1,2-a][1,4]diazepin-5-one] was 1.03 µM; that for `O=C(c1ccc(F)c(C(F)(F)F)c1)N1CCC(=O)N2C[C@H](Oc3cnc(C4CC4)cn3)C[C@H]2C1` [Example 36, (8R,9aS)-8-[(5-cyclopropylpyrazin-2-yl)oxy]-2-[4-fluoro-3-(trifluoromethyl)benzoyl]octahydro-5H-pyrrolo[1,2-a][1,4]diazepin-5-one] was 1.78 µM; that for `O=C(c1cccc(OC(F)(F)F)c1)N1CCC(=O)N2C[C@H](Oc3cnc(C4CC4)cn3)C[C@H]2C1` [Example 37, (8R,9aS)-8-[(5-cyclopropylpyrazin-2-yl)oxy]-2-[3-(trifluoromethoxy)benzoyl]octahydro-5H-pyrrolo[1,2-a][1,4]diazepin-5-one] was 1.14 µM.
`O=C(c1ccc(OC(F)(F)F)cc1)N1CCC(=O)N2C[C@H](Oc3cnc(C4CC4)cn3)C[C@H]2C1` [Example 38, (8R,9aS)-8-[(5-cyclopropylpyrazin-2-yl)oxy]-2-[4-(trifluoromethoxy)benzoyl]octahydro-5H-pyrrolo[1,2-a][1,4]diazepin-5-one]: the IC50 is 2.81 µM.
With `O=C(Cc1cccc(C(F)(F)F)c1)N1CCC(=O)N2C[C@H](Oc3cnc(C4CC4)cn3)C[C@H]2C1` [Example 39], the IC50 was found to be 2.08 µM.
To `O=C(C(O)c1cccc(C(F)(F)F)c1)N1CCC(=O)N2C[C@H](Oc3cnc(C4CC4)cn3)C[C@H]2C1` (stereo partly drawn) [Example 40, (8R,9aS)-8-[(5-cyclopropylpyrazin-2-yl)oxy]-2-{hydroxy[3-(trifluoromethyl)phenyl]acetyl}octahydro-5H-pyrrolo[1,2-a][1,4]diazepin-5-one] belongs 4.7 µM.
To `CNC(C(=O)N1CCC(=O)N2C[C@H](Oc3cnc(C4CC4)cn3)C[C@H]2C1)c1cccc(C(F)(F)F)c1` (stereo partly drawn) [Example 41, (8R,9aS)-8-[(5-cyclopropylpyrazin-2-yl)oxy]-2-{(methylamino)[3-(trifluoromethyl)phenyl]acetyl}octahydro-5H-pyrrolo[1,2-a][1,4]diazepin-5-one] belongs 3.45 µM.
Consider `O=C1CCN(Cc2cccc(OC(F)(F)F)c2)C[C@@H]2C[C@@H](Oc3cnc(C4CC4)cn3)CN12` [Example 43, (8R,9aS)-8-[(5-cyclopropylpyrazin-2-yl)oxy]-2-[3-(trifluoromethoxy)benzyl]octahydro-5H-pyrrolo[1,2-a][1,4]diazepin-5-one], for which the IC50 was 1.11 µM.
The value for `O=C1CCN(Cc2cccc(C(F)(F)F)c2)C[C@@H]2C[C@@H](Oc3ccc(C(F)(F)F)cn3)CN12` [Example 45, (8R,9aS)-2-[3-(trifluoromethyl)benzyl]-8-{[5-(trifluoromethyl)pyridin-2-yl]oxy}octahydro-5H-pyrrolo[1,2-a][1,4]diazepin-5-one] was 0.62 µM.
The value for `O=C1CCN(c2ccc(C(F)(F)F)cn2)C[C@H]2C[C@H](Oc3cnc(C4CC4)cn3)CN12` [Example 46, (8S,9aR)-8-[(5-cyclopropylpyrazin-2-yl)oxy]-2-[5-(trifluoromethyl)pyridin-2-yl]octahydro-5H-pyrrolo[1,2-a][1,4]diazepin-5-one] was 5.07 µM; that for `O=C1CCN(c2cccc(C(F)(F)F)n2)C[C@@H]2C[C@@H](Oc3cnc(C4CC4)cn3)CN12` [Example 48, (8R,9aS)-8-[(5-cyclopropylpyrazin-2-yl)oxy]-2-[6-(trifluoromethyl)pyridin-2-yl]octahydro-5H-pyrrolo[1,2-a][1,4]diazepin-5-one] was 1.54 µM; that for `O=C1CCN(c2ncc(C(F)(F)F)cc2Cl)C[C@@H]2C[C@@H](Oc3cnc(C4CC4)cn3)CN12` [Example 49, (8R,9aS)-2-[3-chloro-5-(trifluoromethyl)pyridin-2-yl]-8-[(5-cyclopropylpyrazin-2-yl)oxy]octahydro-5H-pyrrolo[1,2-a][1,4]diazepin-5-one] was 2.13 µM.
Take `O=C1CCN(c2ncc(C(F)(F)F)cc2F)C[C@@H]2C[C@@H](Oc3cnc(C4CC4)cn3)CN12` [Example 50, (8R,9aS)-8-[(5-cyclopropylpyrazin-2-yl)oxy]-2-[3-fluoro-5-(trifluoromethyl)pyridin-2-yl]octahydro-5H-pyrrolo[1,2-a][1,4]diazepin-5-one]: the IC50 amounted to 2.46 µM.
The value for `O=C1CCN(c2cnc(C3CC3)cn2)C[C@@H]2C[C@@H](Oc3ccc(C(F)(F)F)cn3)CN12` [Example 51, (8R,9aS)-2-(5-cyclopropylpyrazin-2-yl)-8-{[5-(trifluoromethyl)pyridin-2-yl]oxy}octahydro-5H-pyrrolo[1,2-a][1,4]diazepin-5-one] was 7.35 µM.
To `O=C1CCN(S(=O)(=O)c2ccc(C(F)(F)F)cc2)C[C@@H]2C[C@@H](Oc3ccc(C(F)(F)F)cn3)CN12` [Example 52, (8R,9aS)-2-{[4-(trifluoromethyl)phenyl]sulfonyl}-8-{[5-(trifluoromethyl)pyridin-2-yl]oxy}octahydro-5H-pyrrolo[1,2-a][1,4]diazepin-5-one] belongs 1.26 µM.

One may read the IC50 as the concentration needed to halve the response being measured.
